Assay [1] deals with T1, KEAP1 (Homo sapiens, UniProt Q14145).
T1 construct: full-length, human KEAP1 (28023, Addgene) was transiently expressed from a pcDNA/FRT/TO plasmid with a C-terminal 3×FLAG tag; host or cells: HEK293T
In words: Targeted proteomic analysis of crosslinked KEAP1 peptides. The following applies: gel-isolated HMW-KEAP1 vs monomeric KEAP1. The assay is classed as cell-based. The protocol:
In-gel digestion of KEAP1 Targeted proteomic analyses of KEAP1 protein were performed by running anti-FLAG enriched HMW-KEAP1 and LMW-KEAP1 (from both CBR-470-1 or MGx treatments as above) on SDS-PAGE gels, and isolated gel pieces were digested in-gel with sequencing grade trypsin (Promega), as previously reported^35. Tryptic peptides from in-gel tryptic digestions were dissolved in 100 mM Tris-HCl, pH 8.0, with 2 mM of CaCl2), and further digested with mass spectrometry-grade chymotrypsin (Thermo Scientific) according to manufacturer's protocol. Chymotryptic digestion reactions were stopped by acidification, and desalted on Ziptip C18 tips.
Targeted proteomic analysis of crosslinked KEAP1 peptides. Double digested KEAP1 peptides from isolated HMW-KEAP1 and monomeric KEAP1 were analyzed by LC-MS/MS on an Easy-nLC 1000 ultra-high pressure LC system coupled to a Q Exactive HF orbitrap and Easy-Spray nanosource as indicated above. Candidate peptides were initially searched by manual inspection of chromatograms and MS1 spectra for m/z values of peptide candidates from predicted digestion sites, crosslink sites and differential presence in HMW- and monomeric KEAP1 from both CBR-470-1 and MGx treated samples. Extracted MS1 ions of the candidates were present in HMW-KEAP1 digests but not in LMW-KEAP1 digests. […]

In assay [2] the test system is KEAP1. In words: Western blot of KEAP1 / HMW-KEAP1 formation in treated cells (HEK293T FLAG-KEAP1, IMR32). In kind it is cell-based, human. The protocol:
FLAG-tagged Protein Expression and Western Blotting. Full-length, human PGK1 (NM_000291, Origene) transiently expressed from a pCMV6 entry vector with a C-terminal Myc-DDK tag; full-length, human KEAP1 (28023, Addgene) was transiently expressed from a pcDNA/FRT/TO plasmid with a C-terminal 3×FLAG tag. All references to FLAG-PGK1 or FLAG-KEAP1 represent the proteins in the aforementioned vectors, respectively. Transient protein expression was performed in confluent 10 cm plates of HEK293T cells by transfection of 1 μg plasmid with Lipofectamine 2000 (Invitrogen) according to manufacturer's protocol. For in situ compound or metabolite treatment experiments, compounds were added approximately 24 hours after transfection, and incubated for the indicated duration. For FLAG-KEAP1 western blotting and immunoprecipitation experiments, cells were harvested by scraping, pelleted by centrifugation, washed twice with PBS and lysed in 8 M urea, 50 mM NH4HCO3, phosphatase inhibitor cocktail (Sigma Aldrich), and EDTA-free complete protease inhibitor (Roche), pH 8.0, at 4° C. Lysate was sonicated (Fisher Scientific FB-505), insoluble debris cleared by centrifugation, and the supernatant was diluted into 4× Laemmli buffer containing 50 mM dithiothreitol (DTT) as a reducing agent. Samples were prepared for SDS-PAGE by heating to 95° C. for 5 minutes, cooled to room temperature, resolved on NuPAGE Novex 4-12% Bis-Tris Protein Gels (Invitrogen), and transferred onto nitrocellulose membranes by standard western blotting methods. Membranes were blocked in 2% BSA in TBS containing 0.1% tween-20 (TBST) and probed with primary and secondary antibodies. Primary antibodies used in this study include: anti-FLAG-M2 (1:1000, F1804, Sigma Aldrich), anti-KEAP1 (1:500, SC-15246, Santa Cruz), anti-HSPA1A (1:1000, 4872, Cell Signaling), anti-ACTB (1:1000, 4790, Cell Signaling), anti-GAPDH (1:1000, 2118S, Cell Signaling) and TUBG (1:1000, 5886, Cell Signaling). […]
(In general: In western blotting, separated proteins are transferred to a membrane and probed.)

T1 sequence (Q14145 whole entry): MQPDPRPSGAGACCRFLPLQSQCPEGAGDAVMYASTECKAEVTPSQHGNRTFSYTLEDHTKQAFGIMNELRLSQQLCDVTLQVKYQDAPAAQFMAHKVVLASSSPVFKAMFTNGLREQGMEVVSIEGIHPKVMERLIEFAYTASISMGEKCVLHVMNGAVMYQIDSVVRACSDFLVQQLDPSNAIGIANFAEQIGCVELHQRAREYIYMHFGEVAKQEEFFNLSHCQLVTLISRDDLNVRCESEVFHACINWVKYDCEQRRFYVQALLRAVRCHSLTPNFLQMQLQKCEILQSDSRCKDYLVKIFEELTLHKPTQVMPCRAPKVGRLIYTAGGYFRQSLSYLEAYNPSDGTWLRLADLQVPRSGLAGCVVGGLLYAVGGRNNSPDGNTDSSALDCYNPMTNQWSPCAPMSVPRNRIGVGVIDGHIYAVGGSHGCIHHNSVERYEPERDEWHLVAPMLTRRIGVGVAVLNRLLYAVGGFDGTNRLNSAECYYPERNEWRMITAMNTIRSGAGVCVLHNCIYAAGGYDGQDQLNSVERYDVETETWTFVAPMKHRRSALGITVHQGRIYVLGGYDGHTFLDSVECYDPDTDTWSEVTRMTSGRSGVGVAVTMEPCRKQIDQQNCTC

In the case of `CC(=O)C=O` [MGx, methylglyoxal, reference compound], the “MICA crosslinked C151-R135 KEAP1 peptide” value at KEAP1 [1] is “MICA crosslink between C151 and R135 was identified in isolated HMW-KEAP1”. Moreover, the “formation of HMW-KEAP1” value in the assay on KEAP1 [2] (treatment of cell lysates or live cells with metabolite) is recorded as “selective formation of HMW-KEAP1”.

`CC(C)CN[C@H]1CS(=O)(=O)C[C@@H]1S(=O)(=O)c1ccc(Cl)cc1` [CBR-470-1]: the “MICA crosslinked C151-R135 KEAP1 peptide” value at KEAP1 [1] is “MICA crosslink between C151 and R135 was identified in isolated HMW-KEAP1”. For the same compound, the “KEAP1 levels and α-pgK immunoreactive bands” value with KEAP1 [2] (IMR32 cells, 30 minutes) is on record as “did not result in altered KEAP1 levels, or any α-pgK immunoreactive bands”. Besides, in the assay with KEAP1 [2] (Western blot of treated cells), the “high molecular weight KEAP1 (HMW-KEAP1) band” value is “dose-dependent, high molecular weight KEAP1 (HMW-KEAP1) band”.

Values taken from patent publication US12048686B2, “Compositions and methods for activating NRF2-dependent gene expression” (The University of Chicago, priority 2018, dated 2024).
